Molecular target: human mGluR7 (Homo sapiens (Human), UniProt Q14831)
Assay: Inositol monophosphate production assay (IP1 assay), inhibition of L-AP4 response
Format: cell-based
Settings: mean IC50 from at least two independent experiments; HEK293 cells transiently transfected with mGluR7, Gqtop and EAAC1; IP1 production vs EC80 L-AP4
Method in brief: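 HEK293 cells transiently co-expressing mGluR7, chimeric Gq/Gi (Gqtop) and EAAC1, switched to Glutamax medium 3 h before stimulation. IP1 measured by competitive HTRF; inhibition of an EC80-equivalent L-AP4 response, triplicate points, four-parameter fit to log IC50, mean of ≥2 experiments.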

Sequence of human mGluR7 (Q14831 35-915): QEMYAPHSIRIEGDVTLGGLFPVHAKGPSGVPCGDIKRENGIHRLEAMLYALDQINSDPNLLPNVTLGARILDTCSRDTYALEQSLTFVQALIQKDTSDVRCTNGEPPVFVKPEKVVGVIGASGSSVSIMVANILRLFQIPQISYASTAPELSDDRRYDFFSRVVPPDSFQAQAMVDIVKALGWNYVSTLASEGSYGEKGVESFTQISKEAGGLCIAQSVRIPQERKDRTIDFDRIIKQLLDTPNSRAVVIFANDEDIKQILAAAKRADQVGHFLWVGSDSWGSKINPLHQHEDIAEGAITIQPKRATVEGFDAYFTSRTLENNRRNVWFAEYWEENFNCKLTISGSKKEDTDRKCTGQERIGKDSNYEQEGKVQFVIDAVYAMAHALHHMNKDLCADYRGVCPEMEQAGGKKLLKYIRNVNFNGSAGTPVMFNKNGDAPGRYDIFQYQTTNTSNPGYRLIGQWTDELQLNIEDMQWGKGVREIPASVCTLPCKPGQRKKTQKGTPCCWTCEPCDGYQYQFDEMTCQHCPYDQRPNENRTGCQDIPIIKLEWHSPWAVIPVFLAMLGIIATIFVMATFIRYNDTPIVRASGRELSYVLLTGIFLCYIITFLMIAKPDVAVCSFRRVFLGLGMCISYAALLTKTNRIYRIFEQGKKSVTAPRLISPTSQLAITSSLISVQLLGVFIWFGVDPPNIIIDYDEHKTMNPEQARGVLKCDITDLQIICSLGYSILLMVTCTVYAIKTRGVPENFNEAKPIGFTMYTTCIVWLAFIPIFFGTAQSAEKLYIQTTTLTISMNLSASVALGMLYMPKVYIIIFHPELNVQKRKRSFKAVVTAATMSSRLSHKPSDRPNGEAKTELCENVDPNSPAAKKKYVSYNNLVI

| SMILES | IC50 [nM] |
| --- | --- |
| Cc1c(OC2CC2)cccc1C1CCc2c(cnn(-c3ncccn3)c2=O)C1 (single isomer, unassigned; (+)) [Example 129, (+)-6-(3-cyclopropoxy-2-methylphenyl)-2-(pyrimidin-2-yl)-5,6,7,8-tetrahydrophthalazin-1(2H)-one] | 500 to 1000 |
| Cc1ccc2c(cnn2C)c1C1CCc2c(cnn(-c3ncccn3)c2=O)C1 (stereo not shown) [Example 88, 6-(1,5-dimethyl-1H-indazol-4-yl)-2-(pyrimidin-2-yl)-5,6,7,8-tetrahydrophthalazin-1(2H)-one] | 1000 to 30000 |
| CC(=O)c1cccc(C2CCc3c(cnn(-c4ncccn4)c3=O)C2)c1C (stereo not shown) [Example 120, 6-(3-acetyl-2-methylphenyl)-2-(pyrimidin-2-yl)-5,6,7,8-tetrahydrophthalazin-1(2H)-one] | 1000 to 30000 |
| COc1cccc(C2CCc3c(cnn(-c4ccc(C5CC5)cn4)c3=O)C2)c1C (stereo not shown) [Example 110, 2-(5-cyclopropylpyridin-2-yl)-6-(3-methoxy-2-methylphenyl)-5,6,7,8-tetrahydrophthalazin-1(2H)-one] | < 500 |
| COc1cccc(C2CCc3c(cnn(-c4nccc(N5CCOCC5)n4)c3=O)C2)c1C (stereo not shown) [Example 46, 6-(3-methoxy-2-methylphenyl)-2-(4-morpholinopyrimidin-2-yl)-5,6,7,8-tetrahydrophthalazin-1(2H)-one] | < 500 |
| Cc1ccc(C2CCc3c(cnn(-c4ccncc4)c3=O)C2)c(C)c1 (stereo not shown) [Example 50, 6-(2,4-dimethylphenyl)-2-(pyridin-4-yl)-5,6,7,8-tetrahydrophthalazin-1(2H)-one] | < 500 |
| CN1CCc2c(C3CCc4c(cnn(-c5ncccn5)c4=O)C3)cccc21 (stereo not shown) [Example 78, 6-(1-methylindolin-4-yl)-2-(pyrimidin-2-yl)-5,6,7,8-tetrahydrophthalazin-1(2H)-one] | < 500 |
| COc1cccc(C2CCc3c(cnn(-c4ncc(N5CCCC5)cn4)c3=O)C2)c1C (stereo not shown) [Example 111, 6-(3-methoxy-2-methylphenyl)-2-(5-(pyrrolidin-1-yl)pyrimidin-2-yl)-5,6,7,8-tetrahydrophthalazin-1(2H)-one] | 1000 to 30000 |
| COc1cc(C2CCc3c(cnn(-c4ccccn4)c3=O)C2)ccc1C (stereo not shown) [Example 64, 6-(3-methoxy-4-methylphenyl)-2-(pyridin-2-yl)-5,6,7,8-tetrahydrophthalazin-1(2H)-one] | 1000 to 30000 |
| Cc1ccc(C2CCc3c(cnn(-c4nc(C)cc(C)n4)c3=O)C2)c(C)c1 (stereo not shown) [Example 36, 6-(2,4-dimethylphenyl)-2-(4,6-dimethylpyrimidin-2-yl)-5,6,7,8-tetrahydrophthalazin-1(2H)-one] | 1000 to 30000 |
| Cc1ccc(C2CCc3c(cnn(-c4cc(C#N)ccn4)c3=O)C2)c(C)c1 (stereo not shown) [Example 23, 2-(6-(2,4-dimethylphenyl)-1-oxo-5,6,7,8-tetrahydrophthalazin-2(1H)-yl)isonicotinonitrile] | < 500 |
| Cc1ccc(C2CCc3c(cnn(-c4ccc(C5CC5)cn4)c3=O)C2)c(C)c1 (stereo not shown) [Example 108, 2-(5-cyclopropylpyridin-2-yl)-6-(2,4-dimethylphenyl)-5,6,7,8-tetrahydrophthalazin-1(2H)-one] | < 500 |
| Cc1ccc(C2CCc3c(cnn(-c4cc(F)ccn4)c3=O)C2)c(C)c1 (stereo not shown) [Example 11, 6-(2,4-dimethylphenyl)-2-(4-fluoropyridin-2-yl)-5,6,7,8-tetrahydrophthalazin-1(2H)-one] | < 500 |
| COc1cccc(C2CCc3c(cnn(-c4ncc(Cl)cn4)c3=O)C2)c1C (stereo not shown) [Example 43, 2-(5-chloropyrimidin-2-yl)-6-(3-methoxy-2-methylphenyl)-5,6,7,8-tetrahydrophthalazin-1(2H)-one] | < 500 |
| Cc1ccc(C2CCc3c(cnn(-c4cscn4)c3=O)C2)c(C)c1 (stereo not shown) [Example 33, 6-(2,4-dimethylphenyl)-2-(thiazol-4-yl)-5,6,7,8-tetrahydrophthalazin-1(2H)-one] | < 500 |
| Cc1ccc(C2CCc3c(cnn(-c4ncccn4)c3=O)C2)c(Cl)c1 (stereo not shown) [Example 95, 6-(2-chloro-4-methylphenyl)-2-(pyrimidin-2-yl)-5,6,7,8-tetrahydrophthalazin-1(2H)-one] | < 500 |
| Cc1c(OCc2ccccc2)cccc1C1CCc2c(cnn(-c3ncccn3)c2=O)C1 (stereo not shown) [Example 106, 6-(3-(benzyloxy)-2-methylphenyl)-2-(pyrimidin-2-yl)-5,6,7,8-tetrahydrophthalazin-1(2H)-one] | 1000 to 30000 |
| CC(=O)Nc1cnc(-n2ncc3c(c2=O)CCC(c2ccc(C)cc2C)C3)nc1 (single isomer, unassigned; (-)) [Example 136, (−)-N-(2-(6-(2,4-dimethylphenyl)-1-oxo-5,6,7,8-tetrahydrophthalazin-2(1H)-yl)pyrimidin-5-yl)acetamide] | 1000 to 30000 |

Next, values leading:

| IC50 [nM] | SMILES |
| --- | --- |
| < 500 | COc1cccc(C2CCc3c(cnn(-c4ncccn4)c3=O)C2)c1Cl (stereo not shown) [Example 72, 6-(2-chloro-3-methoxyphenyl)-2-(pyrimidin-2-yl)-5,6,7,8-tetrahydrophthalazin-1(2H)-one] |
| < 500 | COc1cccc(C2CCc3c(cnn(-c4ccc(N5CCOCC5)cn4)c3=O)C2)c1C (stereo not shown) [Example 113, 6-(3-methoxy-2-methylphenyl)-2-(5-morpholinopyridin-2-yl)-5,6,7,8-tetrahydrophthalazin-1(2H)-one] |
| < 500 | COc1ccnc(-n2ncc3c(c2=O)CCC(c2ccc(C)cc2C)C3)n1 (stereo not shown) [Example 35, 6-(2,4-dimethylphenyl)-2-(4-methoxypyrimidin-2-yl)-5,6,7,8-tetrahydrophthalazin-1(2H)-one] |
| < 500 | COc1ccc(C)cc1C1CCc2c(cnn(-c3ncccn3)c2=O)C1 (stereo not shown) [Example 76, 6-(2-methoxy-5-methylphenyl)-2-(pyrimidin-2-yl)-5,6,7,8-tetrahydrophthalazin-1(2H)-one] |
| < 500 | COc1cccc(C2CCc3c(cnn(-c4ncccn4)c3=O)C2)c1F (stereo not shown) [Example 79, 6-(2-fluoro-3-methoxyphenyl)-2-(pyrimidin-2-yl)-5,6,7,8-tetrahydrophthalazin-1(2H)-one] |
| < 500 | Cc1ccc(C2CCc3c(cnn(-c4ncccc4F)c3=O)C2)c(C)c1 (stereo not shown) [Example 12, 6-(2,4-dimethylphenyl)-2-(3-fluoropyridin-2-yl)-5,6,7,8-tetrahydrophthalazin-1(2H)-one] |
| < 500 | Cc1ccc(C2CCc3c(cnn(-c4ccc(O)cn4)c3=O)C2)c(C)c1 (stereo not shown) [Example 25, 6-(2,4-dimethylphenyl)-2-(5-hydroxypyridin-2-yl)-5,6,7,8-tetrahydrophthalazin-1(2H)-one] |
| < 500 | Cc1ccc(C2CCc3c(ncn(-c4ccccn4)c3=O)C2)c(C)c1 (stereo not shown) [Example 122, 7-(2,4-dimethylphenyl)-3-(pyridin-2-yl)-5,6,7,8-tetrahydroquinazolin-4(3H)-one] |
| < 500 | COc1cccc(C2CCc3c(cnn(-c4ncc(C)cn4)c3=O)C2)c1Cl (single isomer, unassigned; (-)) [Example 134, (−)-6-(2-chloro-3-methoxyphenyl)-2-(5-methylpyrimidin-2-yl)-5,6,7,8-tetrahydrophthalazin-1(2H)-one] |
| < 500 | O=c1c2c(cnn1-c1ncccn1)CC(c1cccc(OC3CC3)c1Cl)CC2 (single isomer, unassigned; (-)) [Example 130, (−)-6-(2-chloro-3-cyclopropoxyphenyl)-2-(pyrimidin-2-yl)-5,6,7,8-tetrahydrophthalazin-1(2H)-one] |

Source: patent US11414395B2, “Heterocyclic compounds as modulators of mGluR7” (PRAGMA Therapeutics, priority 2017, dated 2022)
